Results reported in patent US9265771B2, “Method for treating Lyme disease” (Zoetis Services LLC, priority 2012, dated 2016).
Several values for one entry are separate records, joined by “and”; a condition that tells them apart may be missing. Identical values can stand only once.

What was measured:
Format in all cases: in vivo, beagle dogs
B. burgdorferi [1] = assay: Study B: SNAP-4Dx ELISA in tick-infected dogs; settings: for SNAP-4Dx Positives, Number of Dogs: N = 8/group
From the text: (§1) Three outer surface proteins (Osp) on B. burgdorferi are important for diagnosis and prevention, and are expressed by the organism in response to its local environment. […] OspF is another surface protein that is generally observed in late-stage disease. The C in […] refers to a 25-amino acid, C6 peptide in the sixth invariable region of an outer membrane lipoprotein (VIsE). Antibody against C6 is highly accurate as a serologic diagnosis of Lyme disease independent of a subject's (e.g., canine) vaccination status. Further, the generation of C6 antibodies implies an active infection with viable spirochetes. Serological methods for detecting B. burgdorfer/Lyme disease were conducted using the IDEXX qualitative SNAP-4Dx ELISA and the Quantitative C6 (Quant C6 or QC6) diagnostic kits, which are enzyme linked immunosorbent assays against the previously described 25-amino-acid C6 peptide. QC6 ELISA data, units/mL, are useful for guidance in initiating and evaluating response to therapy (See Levy S A, O'Connor T P, Hanscom J L, Shields P, et al. Quantitative measurement of a C6 antibody following antibiotic treatment of Borrelia burgdorferi antibody-positive, nonclinical dogs. Clin Vacc Immunol 2008; 15(1):115-119 and Littman M P, Goldstein R E, Labato M A, et al. ACVIM Small Animal Concensus Statement on Lyme Disease in Dogs: Diagnosis, Treatment and Prevention. J Vet Intern Med 2006; 20: 422-434).
(§2) Thirty-two (18 male and 14 female) beagle dogs were sero-negative for Borrelia burgdorferi, not vaccinated with any Borrelia spp vaccines, and acclimated at the study facility for seven days. The study was conducted under National Research Council guidelines (1996). […] Field-caught Ixodes from the northeast USA were placed on the dogs without containment chambers for 10 days; after ticks fed to repletion, dogs were treated with two applications of an approved topical acaricide with a 30-day interval between applications.
(§3) Forty days post-challenge, and prior to antibiotic treatments, blood was collected from each dog as were two skin biopsy punch samples near tick attachment sites. Blood was collected approximately monthly post-treatment. Skin biopsies were taken near the tick attachment site on Days 48/49, 118, 146, 180, and 315. Serum antibodies to Borrelia were assayed using the IDEXX SNAP-4Dx and QC6 ELISA. In cooperation with Cornell University, serum samples were analyzed using fluorescent-bead-based multiplex assays detecting antibodies against B. burgdorferi outer surface proteins OspA, OspC, and OspF. Data were expressed as median fluorescent intensities (MFI), and shown to be specific and sensitive to provide interpretative guidelines regarding infection. The skin biopsies were collected for a polymerase chain reaction (PCR; FlaB) assay and cultured for spirochete detection. At the end of the study, blood and skin biopsies were collected and synovial tissue from the joints were harvested at necropsy.
(§4) On Day 75 and Day 89 Convenia was administered to the eight dogs in T04 (8 mg/kg bodyweight; subcutaneous injection). The other treated groups received their respective regimens daily and orally for 30 days from Days 75 to 104. […] Dogs in T01 served as infected, untreated, controls. Inter-treatment comparisons to evaluate antibiotic efficacy included clinical signs, serology, culture results and pathology.

B. burgdorferi [2] = assay: Study B: QC6 ELISA in tick-infected dogs; settings: 8 dogs/group
From the text: as §1, §2, §3, §4

[3] = system: B. burgdorferi outer surface protein OspF; assay: Study B: fluorescent-bead-based multiplex assay, antibodies against OspF; settings: for Multiplex Assay OspF: No. Dogs > Positive Threshold (# dogs > 1500): 8 dogs/group
Experimental: as §2
as §3, with “Data were expressed as median fluorescent intensities (MFI), and shown to be specific and sensitive to provide interpretative guidelines regarding infection.” left out
On Day 75 and Day 89 Convenia was administered to the eight dogs in T04 (8 mg/kg bodyweight; subcutaneous injection). The other treated groups received their respective regimens daily and orally for 30 days from Days 75 to 104. […] Dogs in T01 served as infected, untreated, controls.

[4] = system: B. burgdorferi outer surface protein OspC; assay: Study B: fluorescent-bead-based multiplex assay, antibodies against OspC; settings: Day 281
Experimental: as §2
as §3, with “At the end of the study, blood and skin biopsies were collected and synovial tissue from the joints were harvested at necropsy.” left out

B. burgdorferi [5] = assay: Study B: microscopic examination of joints and skin at necropsy; settings: for Number of Joints with Changes as Described for Lyme disease: N = 8
Experimental: as §2, §3, §4
At necropsy ten joints were harvested per each dog, formalin-fixed, stained and examined microscopically. Joints included the carpus, elbow, shoulder, stifle and tarsus on both the right and left limbs. Further, a section of skin near tick attachment sites was evaluated from each dog. There were two dogs in the Convenia group (25%) with tissues showing changes as described for Lyme disease, compared to seven controls (87.5%) and three (37.5%) to four (50.0%) dogs in the other antibiotic-treated groups (Table 7). […] The Convenia group had the lowest incidence of joint changes with six affected of 80.

[6] = joints, skin, 8 dogs/group, necropsy

CC1(C)S[C@@H]2[C@H](NC(=O)[C@H](N)c3ccc(O)cc3)C(=O)N2[C@H]1C(=O)O [amoxicillin]
SNAP-4Dx Positives, Number of Dogs (B. burgdorferi [1]; Day 48 (pre-treatment; antibiotics from Day 75)): 5 | SNAP-4Dx Positives, Number of Dogs (B. burgdorferi [1]; Day 111): 7 | SNAP-4Dx Positives, Number of Dogs (B. burgdorferi [1]; Day 145): 3 | SNAP-4Dx Positives, Number of Dogs (B. burgdorferi [1]; Day 179): 2 | SNAP-4Dx Positives, Number of Dogs (B. burgdorferi [1]; Day 221): 0 | SNAP-4Dx Positives, Number of Dogs (B. burgdorferi [1]; Day 251): 0 | SNAP-4Dx Positives, Number of Dogs (B. burgdorferi [1]; Day 281): 0 | SNAP-4Dx Positives, Number of Dogs (B. burgdorferi [1]; Day 315): 0 | SNAP-4Dx Positives, Number of Dogs (B. burgdorferi [1]; Day −15 (pre-infection)): 0 | SNAP-4Dx positive dogs (B. burgdorferi [1]; rest of the study after Day 179): none positive | Dogs Sero-converted to B. burgdorferi per QC6 ELISA (≧30 U/mL), (%) (B. burgdorferi [2]; Day 48 (pre-treatment)): 100.0% | Number of Dogs Sero-converted to B. burgdorferi per QC6 ELISA (≧30 U/mL), No. (B. burgdorferi [2]; Day 48 (pre-treatment)): 8 | Dogs Sero-converted to B. burgdorferi per QC6 ELISA (≧30 U/mL), (%) (B. burgdorferi [2]; Day 111): 75.0% | Number of Dogs Sero-converted to B. burgdorferi per QC6 ELISA (≧30 U/mL), No. (B. burgdorferi [2]; Day 111): 6 | Dogs Sero-converted to B. burgdorferi per QC6 ELISA (≧30 U/mL), (%) (B. burgdorferi [2]; Day 145): 0.0% | Number of Dogs Sero-converted to B. burgdorferi per QC6 ELISA (≧30 U/mL), No. (B. burgdorferi [2]; Day 145): 0 | Dogs Sero-converted to B. burgdorferi per QC6 ELISA (≧30 U/mL), (%) (B. burgdorferi [2]; Day 179): 0.0% | Number of Dogs Sero-converted to B. burgdorferi per QC6 ELISA (≧30 U/mL), No. (B. burgdorferi [2]; Day 179): 0 | Dogs Sero-converted to B. burgdorferi per QC6 ELISA (≧30 U/mL), (%) (B. burgdorferi [2]; Day 221): 0.0% | Number of Dogs Sero-converted to B. burgdorferi per QC6 ELISA (≧30 U/mL), No. (B. burgdorferi [2]; Day 221): 0 | Dogs Sero-converted to B. burgdorferi per QC6 ELISA (≧30 U/mL), (%) (B. burgdorferi [2]; Day 251): 0.0% | Number of Dogs Sero-converted to B. burgdorferi per QC6 ELISA (≧30 U/mL), No. (B. burgdorferi [2]; Day 251): 0 | Dogs Sero-converted to B. burgdorferi per QC6 ELISA (≧30 U/mL), (%) (B. burgdorferi [2]; Day 281): 0.0% | Number of Dogs Sero-converted to B. burgdorferi per QC6 ELISA (≧30 U/mL), No. (B. burgdorferi [2]; Day 281): 0 | Dogs Sero-converted to B. burgdorferi per QC6 ELISA (≧30 U/mL), (%) (B. burgdorferi [2]; Day 314): 0.0% | Number of Dogs Sero-converted to B. burgdorferi per QC6 ELISA (≧30 U/mL), No. (B. burgdorferi [2]; Day 314): 0 | Multiplex Assay OspF: MFI Mean ([3]; Day 48 (pre-treatment)): 1083.75 MFI | Multiplex Assay OspF: No. Dogs > Positive Threshold (# dogs > 1500) ([3]; Day 48 (pre-treatment)): 2 | Multiplex Assay OspF: No. Dogs > Positive Threshold (# dogs > 1500) ([3]; Day 111): three and 3 | Multiplex Assay OspF: MFI Mean ([3]; Day 145): 458.13 MFI | Multiplex Assay OspF: No. Dogs > Positive Threshold (# dogs > 1500) ([3]; Day 145): 0 | Multiplex Assay OspF: MFI Mean ([3]; Day 179): 327.88 MFI | Multiplex Assay OspF: No. Dogs > Positive Threshold (# dogs > 1500) ([3]; Day 179): 0 | Multiplex Assay OspF: MFI Mean ([3]; Day 221): 269.63 MFI | Multiplex Assay OspF: No. Dogs > Positive Threshold (# dogs > 1500) ([3]; Day 221): 0 | Multiplex Assay OspF: MFI Mean ([3]; Day 251): 288.63 MFI | Multiplex Assay OspF: No. Dogs > Positive Threshold (# dogs > 1500) ([3]; Day 251): 0 | Multiplex Assay OspF: MFI Mean ([3]; Day 281): 288.88 MFI | Multiplex Assay OspF: No. Dogs > Positive Threshold (# dogs > 1500) ([3]; Day 281): 0 | Multiplex Assay OspF: MFI Mean ([3]; Day 314): 278.25 MFI | Multiplex Assay OspF: No. Dogs > Positive Threshold (# dogs > 1500) ([3]; Day 314): 0 | Multiplex Assay OspF: MFI Mean ([3]; Day −15 (pre-infection)): 133.38 MFI | Multiplex Assay OspF: No. Dogs > Positive Threshold (# dogs > 1500) ([3]; Day −15 (pre-infection)): 0 | Antibody-OspF status of dogs ([3]; after Day 111): all dogs negative thereafter | Number of dogs above infected threshold (antibody-OspC) [4]: one | Number of Joints with Changes as Described for Lyme disease, Cumulative (B. burgdorferi [5]; 80 total/group): 12 | Number of Joints with Changes as Described for Lyme disease (B. burgdorferi [5]; Carpus L): 2 | Number of Joints with Changes as Described for Lyme disease (B. burgdorferi [5]; Carpus R): 2 | Number of Joints with Changes as Described for Lyme disease (B. burgdorferi [5]; Elbow L): 1 | Number of Joints with Changes as Described for Lyme disease (B. burgdorferi [5]; Elbow R): 1 | Number of Joints with Changes as Described for Lyme disease (B. burgdorferi [5]; Shoulder L): 0 | Number of Joints with Changes as Described for Lyme disease (B. burgdorferi [5]; Shoulder R): 1 | Number of Joints with Changes as Described for Lyme disease (B. burgdorferi [5]; Stifle L): 1 | Number of Joints with Changes as Described for Lyme disease (B. burgdorferi [5]; Stifle R): 2 | Number of Joints with Changes as Described for Lyme disease (B. burgdorferi [5]; Tarsus L): 1 | Number of Joints with Changes as Described for Lyme disease (B. burgdorferi [5]; Tarsus R): 1 | No Tissue Changes, # Dogs (B. burgdorferi [5]; [6]): 4 | No Tissue Changes, % (B. burgdorferi [5]; [6]): 50% | Tissue Changes Described for Lyme Disease, # Dogs (B. burgdorferi [5]; [6]): 4 | Tissue Changes Described for Lyme Disease, % (B. burgdorferi [5]; [6]): 50%
